Measurements as given in ChEMBL document CHEMBL3779889, “Synthetic approaches to the 2014 new drugs” (Bioorg Med Chem, 2016).
Where a name gives a salt, the structure may show the parent alone.

Columns and labels:
[1] = target: Vascular endothelial growth factor receptor 2 (Homo sapiens, UniProt P35968); test: Inhibition of VEGF2 receptor (unknown origin) by ELISA
[2] = target: T1, Sodium/glucose cotransporter 2 (Homo sapiens, UniProt P31639); test: Competitive inhibition of human SGLT2 expressed in CHO-K1 cells assessed as inhibition of [14C]-alpha-methylglucoside uptake; assay type: cell-based
T1 sequence (P31639 whole entry): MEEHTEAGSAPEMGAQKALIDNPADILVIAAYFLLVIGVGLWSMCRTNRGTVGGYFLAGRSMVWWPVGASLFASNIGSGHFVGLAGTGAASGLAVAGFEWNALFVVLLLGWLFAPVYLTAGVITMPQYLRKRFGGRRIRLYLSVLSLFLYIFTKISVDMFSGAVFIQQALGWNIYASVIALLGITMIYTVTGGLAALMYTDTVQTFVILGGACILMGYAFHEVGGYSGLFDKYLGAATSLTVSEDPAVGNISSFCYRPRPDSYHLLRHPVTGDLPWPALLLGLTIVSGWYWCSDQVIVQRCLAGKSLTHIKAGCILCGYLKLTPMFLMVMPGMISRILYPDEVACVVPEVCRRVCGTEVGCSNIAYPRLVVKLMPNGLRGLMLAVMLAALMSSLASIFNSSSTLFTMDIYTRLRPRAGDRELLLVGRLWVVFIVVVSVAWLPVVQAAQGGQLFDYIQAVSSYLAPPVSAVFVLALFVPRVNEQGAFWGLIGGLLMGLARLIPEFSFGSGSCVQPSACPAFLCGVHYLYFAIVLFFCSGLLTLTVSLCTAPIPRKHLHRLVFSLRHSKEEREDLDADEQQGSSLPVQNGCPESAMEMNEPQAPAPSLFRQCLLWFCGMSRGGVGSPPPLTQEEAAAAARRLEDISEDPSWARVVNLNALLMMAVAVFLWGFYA

Hepatitis C virus = test: Antiviral activity against HCV genotype 1a; assay type: functional, organism-based, Hepacivirus hominis; details: subtype 1a
[3] = Half life of compound in human plasma in presence of CYP3A inhibitor ritonavir; assay type: ADME, organism-based; details: with ritonavir (CYP3A inhibitor)

Vascular endothelial growth factor receptor 2, sequence (P35968 whole entry): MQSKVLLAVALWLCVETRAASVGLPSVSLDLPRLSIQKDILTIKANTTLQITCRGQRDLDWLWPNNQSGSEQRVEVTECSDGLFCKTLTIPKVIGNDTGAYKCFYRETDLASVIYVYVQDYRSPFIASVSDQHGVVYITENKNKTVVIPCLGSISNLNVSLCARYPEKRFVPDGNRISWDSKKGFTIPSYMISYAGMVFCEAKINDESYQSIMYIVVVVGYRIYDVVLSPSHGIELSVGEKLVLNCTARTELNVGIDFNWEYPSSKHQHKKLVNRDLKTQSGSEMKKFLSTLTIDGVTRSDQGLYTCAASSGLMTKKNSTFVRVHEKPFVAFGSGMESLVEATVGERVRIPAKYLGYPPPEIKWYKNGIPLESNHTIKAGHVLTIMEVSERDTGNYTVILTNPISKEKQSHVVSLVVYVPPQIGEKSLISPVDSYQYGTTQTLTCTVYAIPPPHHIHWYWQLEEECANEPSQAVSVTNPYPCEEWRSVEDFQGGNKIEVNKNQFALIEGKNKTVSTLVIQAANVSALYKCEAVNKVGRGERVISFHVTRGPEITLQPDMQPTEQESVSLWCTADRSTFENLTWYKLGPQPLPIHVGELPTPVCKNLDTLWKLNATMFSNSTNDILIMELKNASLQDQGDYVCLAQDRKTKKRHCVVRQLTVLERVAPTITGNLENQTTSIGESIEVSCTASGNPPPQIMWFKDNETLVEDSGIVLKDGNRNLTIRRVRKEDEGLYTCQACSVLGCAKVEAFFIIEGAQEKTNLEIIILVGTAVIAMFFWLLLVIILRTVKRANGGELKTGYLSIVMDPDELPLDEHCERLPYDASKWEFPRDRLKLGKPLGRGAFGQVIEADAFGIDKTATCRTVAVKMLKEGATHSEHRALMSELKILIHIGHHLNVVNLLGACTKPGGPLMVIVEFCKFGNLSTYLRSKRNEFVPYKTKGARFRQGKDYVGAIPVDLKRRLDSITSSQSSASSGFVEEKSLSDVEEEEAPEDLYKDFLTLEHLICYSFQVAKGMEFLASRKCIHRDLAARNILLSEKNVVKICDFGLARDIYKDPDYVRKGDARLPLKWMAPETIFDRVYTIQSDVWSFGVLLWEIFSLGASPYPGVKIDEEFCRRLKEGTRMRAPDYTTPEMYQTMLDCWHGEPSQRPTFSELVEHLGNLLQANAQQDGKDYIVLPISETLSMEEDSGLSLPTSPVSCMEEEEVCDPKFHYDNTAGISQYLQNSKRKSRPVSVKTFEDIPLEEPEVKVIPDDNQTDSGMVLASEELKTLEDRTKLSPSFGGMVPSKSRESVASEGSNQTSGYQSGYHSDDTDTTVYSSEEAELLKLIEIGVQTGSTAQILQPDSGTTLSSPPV

N#CC1(c2ccc(NC(=O)c3cccnc3NCc3ccncc3)cc2)CCCC1 [RIVOCERANIB MESYLATE]
IC50 [1]: 1 nM

CCOc1ccc(Cc2cc([C@@H]3S[C@H](CO)[C@@H](O)[C@H](O)[C@H]3O)c(OC)cc2C)cc1
Ki [2]: 1.1 nM

Cc1cnc(C(=O)N[C@H]2CCCCC/C=C\[C@@H]3C[C@@]3(C(=O)NS(=O)(=O)C3CC3)NC(=O)[C@@H]3C[C@@H](Oc4nc5ccccc5c5ccccc45)CN3C2=O)cn1.O.O
EC50 (Hepatitis C virus): 1 nM
half-life [3]: 5.5 h
